Measured values as given in patent US20100047762A1, “METHOD TO MONITOR DRUG EFFICACY IN DIABETIC PATIENTS USING AN ASSAY FOR 1,5-ANHYDRO-D-GLUCITOL” (NIPPON KAYAKU KABUSHIKI KAISHA, priority 2007, published 2010).

Key:
[1] = system: patients with type I diabetes (T1DM); experiment: Post-hoc analysis of randomized, double-blind, placebo-controlled study of pramlintide in T1DM subjects on intensive insulin therapy (baseline HbA1c≦8%); type: in vivo, human
Description: 1,5-AG was assessed as a marker of post-prandial blood glucose (PPG) control in pramlintide-treated patients with type I diabetes (TIDM). PPG is the glucose that appears in the blood stream and tissues after a meal. PPG predominates in the serum over average fasting glucose at HbA1c's less than 8.5%. Antihyperglycemic drugs affect PPG.
Post-hoc analysis of a randomized, double-blind, placebo-controlled study of a subset of subjects with T1DM on intensive insulin therapy with a baseline HbA1c≦8% (N=37, age 40±12 y; HbA1c 7.5±0.3%; weight 85.9±20.8 kg; mean±SD) treated with pramlintide (30/60 μg) or placebo with major meals.
• HbA1c, weight, and insulin dose measured at scheduled visits • Pre-prandial and post-prandial self-monitored blood glucose (SMBG) daily • Plasma 1,5-AG (GlycoMark assay) measured at baseline and week 29
• All evaluable subjects with a baseline HbA1c≦8% and 1,5-AG measured at baseline and week 29 • Mean (±SE) change from baseline HbA1c, body weight, PPG, insulin use and 1,5-AG at week 29 • A repeated measures analysis across all study visits was performed comparing pramlintide and placebo groups

[2] = following a meal; cited from earlier work

CC[C@H](C)[C@H](NC(=O)[C@@H]1CCCN1C(=O)CNC(=O)[C@H](Cc1ccccc1)NC(=O)[C@H](CC(N)=O)NC(=O)[C@H](CC(N)=O)NC(=O)[C@H](CO)NC(=O)[C@H](CO)NC(=O)[C@H](Cc1c[nH]cn1)NC(=O)[C@@H](NC(=O)[C@H](CC(C)C)NC(=O)[C@H](Cc1ccccc1)NC(=O)[C@H](CC(N)=O)NC(=O)[C@H](C)NC(=O)[C@H](CC(C)C)NC(=O)[C@H](CCCNC(=N)N)NC(=O)[C@H](CCC(N)=O)NC(=O)[C@@H](NC(=O)[C@H](C)NC(=O)[C@@H]1CSSC[C@H](NC(=O)[C@@H](N)CCCCN)C(=O)N[C@@H](CC(N)=O)C(=O)N[C@@H]([C@@H](C)O)C(=O)N[C@@H](C)C(=O)N[C@@H]([C@@H](C)O)C(=O)N1)[C@@H](C)O)C(C)C)C(=O)N[C@@H](CC(C)C)C(=O)N1CCC[C@H]1C(=O)N1CCC[C@H]1C(=O)N[C@H](C(=O)N[C@@H](CC(N)=O)C(=O)N[C@H](C(=O)NCC(=O)N[C@@H](CO)C(=O)N[C@@H](CC(N)=O)C(=O)N[C@H](C(=O)N[C@@H](Cc1ccc(O)cc1)C(N)=O)[C@@H](C)O)C(C)C)[C@@H](C)O [Pramlintide, L-Lysyl-L-cysteinyl-L-asparaginyl-L-threonyl-L-alanyl-L-threonyl-L-cysteinyl-L-alanyl-L-threonyl-L-glutaminyl-L-arginyl-L-leucyl-L-alanyl-L-asparaginyl-L-phenylalanyl-L-leucyl-L-valyl-L-histidyl-L-seryl-L-seryl-L-asparaginyl-L-phenylalanyl-glycyl-L-protyl-L-isoleucyl-L-leucyl-L-protyl-L-threonyl-L-asparaginyl-L-valyl-L-glycyl-L-seryl-L-prollneamylin (human) acetate hydrate]
Body Weight, % Change from baseline ([1]; 4 weeks): −0.7% | Body Weight, Mean ([1]; 4 weeks): 84.2 kg | HbA1c, % Change from baseline ([1]; 4 weeks): −7.4% | PPG, % Change from baseline ([1]; 4 weeks): −18.9% | PPG, Mean ([1]; 4 weeks): 143 mg/dL | HbA1c, Mean ([1]; 4 weeks, n = 18): 7.0% | Plasma 1,5-AG, % Change from baseline ([1]; 4 weeks, pramlintide 30/60 μg with major meals): 15.9% | Plasma 1,5-AG, Mean ([1]; 4 weeks, pramlintide 30/60 μg with major meals, n = 18): 6.4 µg/mL | Body Weight, % Change from baseline ([1]; 16 weeks): −2.8% | Body Weight, Mean ([1]; 16 weeks): 82.5 kg | HbA1c, % Change from baseline ([1]; 16 weeks): −7.0% | PPG, % Change from baseline ([1]; 16 weeks): −16.8% | PPG, Mean ([1]; 16 weeks): 145 mg/dL | Plasma 1,5-AG, % Change from baseline ([1]; 16 weeks): 23.4% | HbA1c, Mean ([1]; 16 weeks, n = 16): 7.2% | Plasma 1,5-AG, Mean ([1]; 16 weeks, n = 17): 7 µg/mL | Body Weight, % Change from baseline ([1]; 29 weeks): −2.2% | Body Weight, Mean ([1]; 29 weeks): 83.0 kg | HbA1c, % Change from baseline ([1]; 29 weeks): −4.5% | PPG, % Change from baseline ([1]; 29 weeks): −27.2% | PPG, Mean ([1]; 29 weeks): 135 mg/dL | Plasma 1,5-AG, % Change from baseline ([1]; 29 weeks): 29.8% | most common adverse event associated with pramlintide use ([1]; 29 weeks of treatment): mild to moderate nausea | HbA1c, Mean ([1]; 29 weeks, n = 18): 7.4% | Plasma 1,5-AG, Mean ([1]; 29 weeks, n = 18): 6.9 µg/mL | fasting plasma 1,5-AG levels, relative change from baseline ([1]; baseline to wk 29, mean±SE, P<0.01 vs placebo): +30±16% | fasting plasma 1,5-AG levels, absolute change from baseline ([1]; baseline to wk 29, mean±SE, P<0.05 vs placebo): +0.96±0.91 μg/mL | mealtime insulin use ([1]; week 29, pramlintide-treated subjects): significantly decreased | 2 hr PPG excursions, change from baseline ([1]; week 29, n=18, mean±SE, P<0.001 vs placebo): -43.9 ± 10.9 mg/dL | body weight, change from baseline ([1]; week 29, n=18, mean±SE, P<0.01 vs placebo): -2.0 ± 1.2 kg | HbA1c, change from baseline ([1]; week 29, n=18, mean±SE, similar to placebo): −0.18±0.31% | duration of the slowing of gastric emptying following Pramlintide administration [2]: approximately 3 hours
